Data set [1] concerns PGE2-induced thermal hypersensitivity. As to the kind of experiment: Prostaglandin E2-induced thermal hypersensitivity (warm-water tail withdrawal). The format is in vivo, Spraque-Dawley rats. Particulars: rat, 10 mg/kg p.o., single dose; assessed 30 min after PGE2 injection. On the procedure:
Individually housed Spraque-Dawley rats had free access to rat chow and water. A 12-h light/12-h dark cycle was in effect (lights on from 6:00 am to 6:00 pm). Animal maintenance and research were conducted in accordance with the guidelines provided by the National Institutes of Health Committee on Laboratory Animal Resources. These subjects were used in the tests below.
The terminal 10 cm of the tail (rat) was placed into a thermos bottle containing water warmed to 38, 42, 46, 50 or 54° C. The latency in seconds for the animal to remove the tail from the water was used as a measure of nociception. […]
The ability of the compounds to reverse PGE2-induced thermal hypersensitivity was assessed using a single dose time-course procedure. […] sensitivity was assessed 30 min after PGE2 injection.
Data Analysis—The temperature that produced a half-maximal increase in the tail-withdrawal latency (i.e., T10) was calculated from each temperature-effect curve. The T10 was determined by interpolation from a line drawn between the point above and the point below 10 sec on the temperature-effect curve. […] Reversal of thermal hypersensitivity was defined as a return to baseline of the temperature-effect curve and the T10 value and was calculated according to the following equation: […]

The text below walks through data of patent US7879826B2, “Derivatives of [2-(8,9-dioxo-2,6-diazabicyclo[5.2.0]non-1(7)-en-2-yl)alkyl]phosphonic acid and methods of making them” (Wyeth LLC, priority 2004, dated 2011).

In turn, `CCOC(=O)c1cccc(OP(=O)(CCN2CCCNc3c2c(=O)c3=O)Oc2cccc(C(=O)OCC)c2)c1` [Example 1, Diethyl 3,3′-[({2-[8,9-dioxo-2,6-diazabicyclo[5.2.0]non-1(7)-en-2-yl]ethyl}phosphoryl)bis(oxy)]dibenzoate] registered a melting point of 116 to 117 °C. Besides, the “reversing PGE2-induced thermal hypersensitivity (% MPE)” value in data set [1] is on record as 40%.

As a reminder, the melting point is the temperature of the solid-liquid transition.
